{"source": "paper PMC8343220", "about": "“The selectivity of α‐adrenoceptor agonists for the human α1A, α1B, and α1D‐adrenoceptors” (Pharmacology Research & Perspectives, 2021)", "key": {"[1]": {"system": "parental CHO cell line without any transfected receptors", "assay": "Forskolin‐stimulated cAMP accumulation, parent CHO cells without transfected receptors", "assay_type": "cell-based, Chinese hamster"}, "[2]": {"system": "parental CHO cell line without any transfected receptors", "assay": "^3H‐cAMP accumulation, parent CHO cells without transfected receptors", "assay_type": "cell-based, Chinese hamster"}, "[3]": {"system": "parental CHO cell line without any transfected receptors", "assay": "Intracellular calcium mobilization, parent CHO cells without transfected receptors", "assay_type": "cell-based, Chinese hamster"}, "[4]": {"system": "parental CHO cell line without any transfected receptors", "assay": "ERK1/2‐phosphorylation, parent CHO cells without transfected receptors", "assay_type": "cell-based, Chinese hamster"}, "human α1A‐adrenoceptor [5]": {"target": "T1, human α1A‐adrenoceptor (Homo sapiens, UniProt P35348)", "T1 construct": "expressed in transfected cells; host or cells: CHO-K1", "T1 sequence (P35348 1-466)": "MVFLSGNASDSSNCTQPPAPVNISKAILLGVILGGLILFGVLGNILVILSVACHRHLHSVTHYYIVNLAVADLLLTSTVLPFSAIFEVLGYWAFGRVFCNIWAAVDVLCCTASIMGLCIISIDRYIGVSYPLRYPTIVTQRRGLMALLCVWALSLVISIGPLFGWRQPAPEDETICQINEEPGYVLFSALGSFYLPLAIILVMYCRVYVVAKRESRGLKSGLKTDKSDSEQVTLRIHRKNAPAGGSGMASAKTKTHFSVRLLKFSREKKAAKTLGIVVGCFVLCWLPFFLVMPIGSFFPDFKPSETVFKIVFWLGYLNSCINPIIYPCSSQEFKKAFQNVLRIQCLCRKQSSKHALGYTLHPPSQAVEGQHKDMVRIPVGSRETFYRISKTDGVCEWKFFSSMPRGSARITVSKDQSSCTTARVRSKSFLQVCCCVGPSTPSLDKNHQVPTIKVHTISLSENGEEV", "assay": "Intracellular free calcium mobilization, CHO‐α1A cells", "assay_type": "cell-based"}, "[6]": {"target": "T2, human α1D‐adrenoceptor (full length) (Homo sapiens, UniProt P25100)", "T2 construct": "human α1D‐adrenoceptor (full length) were used; expressed in transfected cells; host or cells: CHO-K1", "T2 sequence (P25100 1-572)": "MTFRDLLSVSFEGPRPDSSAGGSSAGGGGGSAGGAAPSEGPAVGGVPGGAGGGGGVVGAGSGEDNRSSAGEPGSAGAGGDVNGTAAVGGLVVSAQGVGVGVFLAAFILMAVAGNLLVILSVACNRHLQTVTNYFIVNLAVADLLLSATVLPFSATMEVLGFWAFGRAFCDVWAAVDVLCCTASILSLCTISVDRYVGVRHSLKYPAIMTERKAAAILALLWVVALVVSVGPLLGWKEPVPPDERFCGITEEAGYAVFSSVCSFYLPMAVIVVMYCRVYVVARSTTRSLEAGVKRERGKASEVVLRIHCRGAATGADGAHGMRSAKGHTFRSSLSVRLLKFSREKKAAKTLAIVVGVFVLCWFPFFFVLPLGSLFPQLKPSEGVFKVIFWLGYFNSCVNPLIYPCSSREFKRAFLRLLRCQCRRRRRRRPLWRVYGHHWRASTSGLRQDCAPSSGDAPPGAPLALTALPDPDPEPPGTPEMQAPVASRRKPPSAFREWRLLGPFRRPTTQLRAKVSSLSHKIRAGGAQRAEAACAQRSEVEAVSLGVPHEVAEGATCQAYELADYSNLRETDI", "assay": "ERK1/2‐phosphorylation (Surefire Alphascreen), CHO‐α1D cells", "assay_type": "cell-based"}, "human α1B‐adrenoceptor [7]": {"target": "T3, human α1B‐adrenoceptor (Homo sapiens, UniProt P35368)", "T3 construct": "expressed in transfected cells; host or cells: CHO-K1", "T3 sequence (P35368 1-520)": "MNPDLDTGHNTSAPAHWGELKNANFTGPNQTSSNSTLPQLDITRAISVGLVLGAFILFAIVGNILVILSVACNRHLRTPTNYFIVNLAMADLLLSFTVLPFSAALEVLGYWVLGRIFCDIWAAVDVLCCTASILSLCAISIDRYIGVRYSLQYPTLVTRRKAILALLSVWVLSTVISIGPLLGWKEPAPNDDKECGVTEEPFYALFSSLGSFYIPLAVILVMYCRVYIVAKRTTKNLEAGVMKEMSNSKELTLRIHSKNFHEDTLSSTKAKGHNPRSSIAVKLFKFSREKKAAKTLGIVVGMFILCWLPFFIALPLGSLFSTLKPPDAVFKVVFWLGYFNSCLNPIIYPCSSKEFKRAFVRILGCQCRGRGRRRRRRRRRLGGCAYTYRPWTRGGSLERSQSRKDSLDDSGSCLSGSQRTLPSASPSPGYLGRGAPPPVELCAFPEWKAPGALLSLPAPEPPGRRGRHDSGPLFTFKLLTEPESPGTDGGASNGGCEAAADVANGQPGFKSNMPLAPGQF", "assay": "^3H‐prazosin whole‐cell radioligand binding, CHO‐α1B cells"}, "human α1A‐adrenoceptor [8]": {"target": "T1, human α1A‐adrenoceptor", "assay": "^3H‐cAMP accumulation, CHO‐α1A cells", "assay_type": "cell-based", "conditions": "CHO‐α1A cells"}, "[9]": {"target": "T2, human α1D‐adrenoceptor (full length)", "assay": "^3H‐cAMP accumulation in the presence of 10 μM forskolin, CHO‐α1D cells", "assay_type": "cell-based", "conditions": "CHO‐α1D cells"}, "human α1A‐adrenoceptor [10]": {"target": "T1, human α1A‐adrenoceptor", "assay": "ERK1/2‐phosphorylation (Surefire Alphascreen), CHO‐α1A cells", "assay_type": "cell-based"}, "human α1A‐adrenoceptor [11]": {"target": "T1, human α1A‐adrenoceptor", "assay": "^3H‐prazosin whole‐cell radioligand binding, CHO‐α1A cells"}, "human α1A‐adrenoceptor [12]": {"target": "T1, human α1A‐adrenoceptor", "assay": "^3H‐cAMP accumulation in the presence of 10 μM forskolin, CHO‐α1A cells", "assay_type": "cell-based", "conditions": "CHO‐α1A cells"}, "human α1B‐adrenoceptor [13]": {"target": "T3, human α1B‐adrenoceptor", "assay": "^3H‐cAMP accumulation, CHO‐α1B cells", "assay_type": "cell-based", "conditions": "CHO‐α1B cells"}, "[14]": {"target": "T2, human α1D‐adrenoceptor (full length)", "assay": "Intracellular free calcium mobilization, CHO‐α1D cells", "assay_type": "cell-based"}, "human α1B‐adrenoceptor [15]": {"target": "T3, human α1B‐adrenoceptor", "assay": "Intracellular free calcium mobilization, CHO‐α1B cells", "assay_type": "cell-based"}, "[16]": {"target": "T2, human α1D‐adrenoceptor (full length)", "assay": "^3H‐cAMP accumulation, CHO‐α1D cells", "assay_type": "cell-based", "conditions": "cAMP accumulation without forskolin"}, "[17]": {"target": "T2, human α1D‐adrenoceptor (full length)", "assay": "^3H‐prazosin whole‐cell radioligand binding, CHO‐α1D cells"}, "human α1B‐adrenoceptor [18]": {"target": "T3, human α1B‐adrenoceptor", "assay": "^3H‐cAMP accumulation in the presence of 10 μM forskolin, CHO‐α1B cells", "assay_type": "cell-based", "conditions": "CHO‐α1B cells"}, "human α1B‐adrenoceptor [19]": {"target": "T3, human α1B‐adrenoceptor", "assay": "ERK1/2‐phosphorylation (Surefire Alphascreen), CHO‐α1B cells", "assay_type": "cell-based"}, "[20]": {"conditions": "read-out: Intracellular calcium release Log EC50 (converted)"}, "[21]": {"conditions": "fold increase of the forskolin response"}, "[22]": {"conditions": "read-out: ERK1/2‐phosphorylation Log EC50 (converted)"}}}
{"smiles": "CCN(CC)C(=O)N[C@H]1C=C2c3cccc4[nH]cc(c34)C[C@H]2N(C)C1", "note": "[Lisuride]", "values": [{"measurement": "cAMP accumulation (in presence of forskolin) % forskolin-stim cAMP at 10μM", "setting": "[1]", "result": "85.2 ± 5.0", "unit": "%"}, {"measurement": "cAMP accumulation % forskolin", "setting": "[2]", "result": "No response"}, {"measurement": "Intracellular calcium release % ionomycin", "setting": "[3]", "result": "No response"}, {"measurement": "ERK1/2‐phosphorylation response in parent CHO cells", "setting": "[4]", "result": "stimulated ERK1/2‐phosphorylation responses"}, {"measurement": "Emax", "setting": "[4]; Cricetulus griseus, CHO, read-out: ERK1/2-phosphorylation % PDBu", "result": "41 ± 6.4", "unit": "%"}]}
{"smiles": "Cc1cccc([C@H](C)c2cnc[nH]2)c1C", "note": "[Dexmedetomidine]", "values": [{"measurement": "Intracellular calcium release % ionomycin", "setting": "human α1A‐adrenoceptor [5]", "result": "57.3 ± 2.8", "unit": "%"}, {"measurement": "Log efficacy ratio KD /EC50", "setting": "human α1A‐adrenoceptor [5]", "result": 1.91}, {"measurement": "EC50", "setting": "human α1A‐adrenoceptor [5]; [20]", "result": 0.0162, "unit": "µM"}, {"measurement": "cAMP accumulation (in presence of forskolin) % forskolin-stim cAMP at 100μM", "setting": "[1]; CHO cells without transfected receptors, response at 100μM only, EC50 not obtainable, % of forskolin-stimulated cAMP", "result": "84.4 ± 4.7", "unit": "%"}, {"measurement": "ERK1/2‐phosphorylation % PDBu at 100 µM", "setting": "[6]", "result": "19.7 ± 3.3", "unit": "%"}, {"measurement": "Kd", "setting": "human α1B‐adrenoceptor [7]; Log KD α1B, ^3H‐prazosin whole cell binding", "result": 9.12, "unit": "µM"}, {"measurement": "Kd", "setting": "human α1B‐adrenoceptor [7]; Log KD, ^3H‐prazosin binding", "result": 9.12, "unit": "µM"}, {"measurement": "EC50", "setting": "human α1A‐adrenoceptor [8]; 5 h, read-out: cAMP accumulation Log EC50 (converted)", "result": 0.513, "unit": "µM"}, {"measurement": "cAMP accumulation % forskolin", "setting": "human α1A‐adrenoceptor [8]; % of 10 µM forskolin response", "result": "57.6 ± 5.7", "unit": "%"}, {"measurement": "cAMP (in presence of forskolin) Fold increase", "setting": "[9]; [21]", "result": "No response"}, {"measurement": "cAMP (in presence of forskolin) Log EC50", "setting": "[9]; in presence of forskolin, log values given negative", "result": "No response"}, {"measurement": "ERK1/2‐phosphorylation % PDBu", "setting": "human α1A‐adrenoceptor [10]", "result": "81.7 ± 4.4", "unit": "%"}, {"measurement": "EC50", "setting": "human α1A‐adrenoceptor [10]; [22]", "result": 0.0138, "unit": "µM"}, {"measurement": "Affinity selectivity ratio α1A vs α1B", "setting": "human α1A‐adrenoceptor [11]", "result": 6.9, "unit": "fold"}, {"measurement": "Kd", "setting": "human α1A‐adrenoceptor [11]; Log KD α1A, ^3H‐prazosin whole cell binding", "result": 1.32, "unit": "µM"}, {"measurement": "Emax", "setting": "[3]; Cricetulus griseus, CHO cells without transfected receptors, response at maximum concentration used (c2), as % of ionomycin (10μM) response, mean ± s.e.m., read-out: Intracellular calcium release % ionomycin", "result": "6.3 ± 4.8", "unit": "%"}, {"measurement": "EC50", "setting": "human α1A‐adrenoceptor [12]; 10 μM forskolin, read-out: cAMP accumulation (in presence of forskolin) Log EC50 (converted)", "result": 0.0851, "unit": "µM"}, {"measurement": "cAMP accumulation (in presence of forskolin) Fold increase", "setting": "human α1A‐adrenoceptor [12]; [21]", "result": "2.13 ± 0.09", "unit": "fold"}, {"measurement": "cAMP accumulation % forskolin", "setting": "human α1B‐adrenoceptor [13]; % forskolin maximum response", "result": "3.7 ± 0.6", "unit": "%"}, {"measurement": "EC50", "setting": "human α1B‐adrenoceptor [13]; read-out: cAMP accumulation Log EC50 (converted)", "result": 0.0891, "unit": "µM"}, {"measurement": "Emax at 100 µM", "setting": "[4]; Cricetulus griseus, CHO, read-out: ERK1/2-phosphorylation % PDBu at 100μM", "result": "5.8 ± 2.2", "unit": "%"}, {"measurement": "Intracellular calcium release % Ionomycin at 100 µM", "setting": "[14]", "result": "13.1 ± 1.7", "unit": "%"}, {"measurement": "Intracellular calcium release % ionomycin", "setting": "human α1B‐adrenoceptor [15]", "result": "43.6 ± 2.1", "unit": "%"}, {"measurement": "Log efficacy ratio KD /EC50", "setting": "human α1B‐adrenoceptor [15]", "result": 2.29}, {"measurement": "EC50", "setting": "human α1B‐adrenoceptor [15]; [20]", "result": 0.0468, "unit": "µM"}, {"measurement": "cAMP Log EC50", "setting": "[16]", "result": "No response"}, {"measurement": "Affinity selectivity ratio α1A vs α1D", "setting": "[17]", "result": 1.3, "unit": "fold"}, {"measurement": "Affinity selectivity ratio α1B vs α1D", "setting": "[17]", "result": 9.3, "unit": "fold"}, {"measurement": "Kd", "setting": "[17]; 3H‐prazosin binding Log KD", "result": 1.23, "unit": "µM"}, {"measurement": "Kd", "setting": "[17]; Log KD α1D, ^3H‐prazosin whole cell binding", "result": 1.23, "unit": "µM"}, {"measurement": "cAMP accumulation (in presence of forskolin) Fold increase", "setting": "human α1B‐adrenoceptor [18]; [21]", "result": "1.60 ± 0.07", "unit": "fold"}, {"measurement": "EC50", "setting": "human α1B‐adrenoceptor [18]; in presence of forskolin, read-out: cAMP accumulation (in presence of forskolin) Log EC50 (converted)", "result": 0.0331, "unit": "µM"}, {"measurement": "ERK1/2‐phosphorylation % PDBu", "setting": "human α1B‐adrenoceptor [19]", "result": "55.4 ± 7.4", "unit": "%"}, {"measurement": "EC50", "setting": "human α1B‐adrenoceptor [19]; [22]", "result": 0.132, "unit": "µM"}]}
